This passage reports IC50, Aldosterone and Cortisol results from EP4806899A1, “FUSED RING DERIVATIVE, PREPARATION METHOD THEREFOR AND USE THEREOF IN MEDICINE” (Shanghai Qilu Pharmaceutical Research and Development …, priority 2023, dated 2025).

In one test the target is T1, human CYP11B1 enzyme (Homo sapiens, UniProt P15538).
T1 construct: the ORF of human CYP11B1 or CYP11B2 were transfected into G402 cells; expressed in transfected cells
T1 sequence (P15538 25-503): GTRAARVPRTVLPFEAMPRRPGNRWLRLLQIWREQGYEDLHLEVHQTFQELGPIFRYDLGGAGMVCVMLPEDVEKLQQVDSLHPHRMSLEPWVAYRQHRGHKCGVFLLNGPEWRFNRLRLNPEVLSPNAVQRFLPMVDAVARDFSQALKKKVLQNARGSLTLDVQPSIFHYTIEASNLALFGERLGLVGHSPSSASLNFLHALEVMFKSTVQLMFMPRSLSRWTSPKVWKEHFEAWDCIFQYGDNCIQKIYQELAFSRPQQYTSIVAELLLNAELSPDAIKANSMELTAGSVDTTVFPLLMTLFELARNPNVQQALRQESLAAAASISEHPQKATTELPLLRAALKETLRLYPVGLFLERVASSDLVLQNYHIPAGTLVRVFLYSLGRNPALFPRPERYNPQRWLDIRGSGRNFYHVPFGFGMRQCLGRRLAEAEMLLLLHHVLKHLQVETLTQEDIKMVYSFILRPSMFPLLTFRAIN
Kind of test: Enzyme inhibition activity assay in G402 cells stably expressing human CYP11B1 (cortisol production from 11-DC, LC/MS). The class given is cell-based. The settings on record: 1 µM 11-DC, 16 hours, cortisol detected. In outline: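 G402 cells stably expressing human CYP11B2 or CYP11B1, preincubated 1 h with inhibitor in DMEM/F12 plus 2.5% charcoal-stripped FCS, then 16 h with 1 µM 11-DOC or 1 µM 11-DC. Aldosterone or cortisol quantified by LC/MS; IC50 from four-parameter logistic fit versus uninhibited control.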

A further test deals with plasma hormone levels. Put plainly: Pharmacodynamic determination in monkeys: plasma aldosterone and cortisol after ACTH stimulation. The class given is in vivo, cynomolgus monkeys. The settings on record: P.O. As to the method: Cynomolgus monkeys were used as test animals to evaluate the pharmacodynamics of multiple compounds of the present disclosure on plasma hormone levels following gavage administration (P.O.) at various doses such as 0.1 mpk (and others, e.g., 0.03 mpk, 0.1 mpk, and 0.3 mpk).
Male cynomolgus monkeys, Suzhou Xishan Zhongke Laboratory Animal Co., Ltd. Animal production license number: SCXK (Su) 2023-0001, animal use license number: SYXK (Su) 2020-0017.
Male cynomolgus monkeys were performed gavage administration (P.O.) at doses set as: 0 mpk (vehicle group, i.e., Veh group), 0.03 mpk, 0.1 mpk, and 0.3 mpk. In each group, 15 µg/kg ACTH was injected intramuscularly 1 hour after dosing. Continuous venous blood samples were collected from each group at 1 hour before administration and at multiple time points after administration. Blood samples were collected, and plasma aldosterone and its precursors, as well as plasma corticosterone and its precursors, at multiple time points were analyzed using LC/MS methods.
Venous blood samples were collected at 1-2 hours before gavage administration and at multiple time points after intramuscular injection of ACTH (adrenocorticotropic hormone). The samples were placed in EDTA-K2 tubes, centrifuged at 4 °C, 2600 g for 10 minutes to separate plasma, which was then stored at -80 °C.
• HPLC: Waters ACQUITY UPLC I-Class PLUS; • Mass spectrometry conditions: Triple Quad™ 7500 (Serial No. FA224362212) mass spectrometer; • Chromatographic column: phenomenex kinetex 2.6µm C8 100A 50 × 4.60 mm; • Mobile phase: mobile phase A was 0.5 mM ammonium fluoride solution containing 0.1% formic acid; mobile phase B was MeOH.
The data in Figs. 1, 2, 3, 4, and 5 are analyzed based on PD changes at 30 minutes after ACTH stimulation. The percentage of PD relative to the control group (Veh group) at 30 minutes after ACTH stimulation serves as the main basis for pharmacodynamic evaluation, calculated according to the following formula: [formula] where PD refers to aldosterone or cortisol. Table 8 Pharmacodynamic Evaluation of Example Compound C44 in Monkeys

The mark [1] stands for this setting: 0.03 mpk, 30min after ACTH stimulation, plasma.
The mark [2] stands for this setting: 0.1 mpk, 30min after ACTH stimulation, plasma.
[3] abbreviates: 0.3 mpk, 30min after ACTH stimulation, plasma.

What is called IC50 is the point on the concentration scale where inhibition reaches its midpoint. As to `[2H]C([2H])([2H])OC(=O)N[C@@H]1CCOc2c(-c3cc(F)c4c(ccc(=O)n4C)c3)cncc21` [Compound A50], at human CYP11B1 enzyme, the IC50 amounted to 2110 nM. Also, the Aldosterone in the test on plasma hormone levels (0.03 mpk, 0h, plasma) came out at 0.12 ng/mL; with plasma hormone levels (setting [1]), 0.22 ng/mL; with plasma hormone levels (0.1 mpk, 0h, plasma) it was 0.49 ng/mL; in the test with plasma hormone levels (setting [2]), 0.12 ng/mL; in the test on plasma hormone levels (0.3 mpk, 0h, plasma), 0.12 ng/mL; in the test with plasma hormone levels (setting [3]), 0.06 ng/mL. Also, the Cortisol came out at 358.3 ng/mL with plasma hormone levels (0.03 mpk, 0h, plasma); 430.0 ng/mL in the test on plasma hormone levels (setting [1]); 282.0 ng/mL in the test with plasma hormone levels (0.1 mpk, 0h, plasma); 386.0 ng/mL in the test on plasma hormone levels (setting [2]); 304.7 ng/mL with plasma hormone levels (0.3 mpk, 0h, plasma); 369.7 ng/mL in the test on plasma hormone levels (setting [3]).
As to `CCC(=O)N[C@@H]1CCOc2c(-c3ccc4c(c3)CCC(=O)N4C)cncc21` [Compound A02-P2], on human CYP11B1 enzyme, the IC50 is 3680 nM. In addition, the Cortisol with plasma hormone levels (0.03 mpk, 0h, plasma) was 269.0 ng/mL; with plasma hormone levels (setting [1]), 384.0 ng/mL; in the test on plasma hormone levels (0.1 mpk, 0h, plasma), 436.0 ng/mL; with plasma hormone levels (setting [2]), 599.0 ng/mL; in the test on plasma hormone levels (0.3 mpk, 0h, plasma) it was 283.0 ng/mL; with plasma hormone levels (setting [3]), 387.0 ng/mL. Also, the Aldosterone with plasma hormone levels (0.03 mpk, 0h, plasma (Table 12)) worked out at 0.13 ng/mL; in the test with plasma hormone levels (0.03 mpk, 30min after ACTH stimulation, plasma (Table 12)), 0.27 ng/mL; with plasma hormone levels (0.1 mpk, 0h, plasma (Table 12)) it was 0.40 ng/mL; in the test on plasma hormone levels (0.1 mpk, 30min after ACTH stimulation, plasma (Table 12)), 0.20 ng/mL; in the test on plasma hormone levels (0.3 mpk (dose printed 03), 0h, plasma (Table 12)), 0.13 ng/mL; in the test on plasma hormone levels (0.3 mpk (dose printed 03), 30min after ACTH stimulation, plasma (Table 12)), 0.05 ng/mL.
